Results published in PubChem BioAssay AID248 (DTP/NCI, 2004).
“And” between values parts separate entries of the source, which are not always exact repeats. Equal values may be shown once. Inconclusive results and toxic doses are left out. Cut-off read from the data, not from the text of the source: active = T/C of 150% or more; inactive = T/C below 125%.

Tested on: L1210 leukemia ip in BDF1 mice, survival T/C
Assay: NCI In Vivo Anticancer Drug Screen. Data for tumor model L1210 Leukemia (intraperitoneal) in B6D2F1 (BDF1) mice
Conditions: endpoint: mean survival time, higher = longer survival
Method in brief: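 Mice bearing the transplanted tumor received compound or vehicle. Survival of the treated group was divided by that of the vehicle-treated control group to give the ratio.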

[1] = dose: 100.0 mg/kg/injection, schedule: Q04DX003 (ip), vehicle: Klucel (hydroxypropylcellulose) (HPC)
[2] = dose: 200.0 mg/kg/injection, schedule: Q04DX003 (ip), vehicle: Klucel (hydroxypropylcellulose) (HPC)
[3] = dose: 400.0 mg/kg/injection, schedule: Q04DX003 (ip), vehicle: Klucel (hydroxypropylcellulose) (HPC)
[4] = dose: 100.0 mg/kg/injection, schedule: Q04DX002 (ip), vehicle: saline
[5] = dose: 200.0 mg/kg/injection, schedule: Q04DX002 (ip), vehicle: saline
[6] = dose: 400.0 mg/kg/injection, schedule: Q04DX002 (ip), vehicle: saline
[7] = dose: 100.0 mg/kg/injection, schedule: Q01DX009 (ip), vehicle: saline with Tween-80
[8] = dose: 200.0 mg/kg/injection, schedule: Q01DX009 (ip), vehicle: saline with Tween-80
[9] = dose: 400.0 mg/kg/injection, schedule: Q01DX009 (ip), vehicle: saline with Tween-80
[10] = dose: 100.0 mg/kg/injection, schedule: Q01DX001 (ip), vehicle: carboxymethylcellulose (CMC)
[11] = dose: 200.0 mg/kg/injection, schedule: Q01DX001 (ip), vehicle: carboxymethylcellulose (CMC)
[12] = dose: 400.0 mg/kg/injection, schedule: Q01DX001 (ip), vehicle: carboxymethylcellulose (CMC)
[13] = dose: 100.0 mg/kg/injection, schedule: Q04DX003 (ip), vehicle: saline with Tween-80
[14] = dose: 200.0 mg/kg/injection, schedule: Q04DX003 (ip), vehicle: saline with Tween-80
[15] = dose: 400.0 mg/kg/injection, schedule: Q04DX003 (ip), vehicle: saline with Tween-80
[16] = dose: 100.0 mg/kg/injection, schedule: Q01DX001 (ip), vehicle: saline
[17] = dose: 200.0 mg/kg/injection, schedule: Q01DX001 (ip), vehicle: saline
[18] = dose: 400.0 mg/kg/injection, schedule: Q01DX001 (ip), vehicle: saline
[19] = dose: 100.0 mg/kg/injection, schedule: Q01DX001 (ip), vehicle: saline with Tween-80
[20] = dose: 100.0 mg/kg/injection, schedule: Q04DX002 (ip), vehicle: saline with Tween-80
[21] = dose: 200.0 mg/kg/injection, schedule: Q01DX001 (ip), vehicle: saline with Tween-80
[22] = dose: 200.0 mg/kg/injection, schedule: Q04DX002 (ip), vehicle: saline with Tween-80
[23] = dose: 400.0 mg/kg/injection, schedule: Q01DX001 (ip), vehicle: saline with Tween-80
[24] = dose: 400.0 mg/kg/injection, schedule: Q04DX002 (ip), vehicle: saline with Tween-80
[25] = dose: 100.0 mg/kg/injection, schedule: Q04DX003 (ip), vehicle: saline
[26] = dose: 200.0 mg/kg/injection, schedule: Q04DX003 (ip), vehicle: saline
[27] = dose: 400.0 mg/kg/injection, schedule: Q04DX003 (ip), vehicle: saline
[28] = dose: 25.0 mg/kg/injection, schedule: Q01DX009 (ip), vehicle: Klucel (hydroxypropylcellulose) (HPC)
[29] = dose: 50.0 mg/kg/injection, schedule: Q01DX009 (ip), vehicle: Klucel (hydroxypropylcellulose) (HPC)
[30] = dose: 100.0 mg/kg/injection, schedule: Q01DX001 (ip), vehicle: Klucel (hydroxypropylcellulose) (HPC)
[31] = dose: 200.0 mg/kg/injection, schedule: Q01DX001 (ip), vehicle: Klucel (hydroxypropylcellulose) (HPC)
[32] = dose: 400.0 mg/kg/injection, schedule: Q01DX001 (ip), vehicle: Klucel (hydroxypropylcellulose) (HPC)
[33] = dose: 100.0 mg/kg/injection, schedule: Q01DX009 (ip), vehicle: Klucel (hydroxypropylcellulose) (HPC)

Measured: T/C

Clc1ccc2nnnn2n1
inactive: dose: 12.5 mg/kg/injection, schedule: Q01DX009 (ip), vehicle: saline with Tween-80 97 % of control | dose: 25.0 mg/kg/injection, schedule: Q01DX009 (ip), vehicle: saline with Tween-80 100 % of control | dose: 50.0 mg/kg/injection, schedule: Q01DX009 (ip), vehicle: saline with Tween-80 110 % of control | dose: 62.5 mg/kg/injection, schedule: Q04DX003 (ip), vehicle: saline 109 % of control | dose: 100.0 mg/kg/injection, schedule: Q04DX002 (ip), vehicle: Klucel (hydroxypropylcellulose) (HPC) 115 % of control | dose: 125.0 mg/kg/injection, schedule: Q04DX003 (ip), vehicle: saline 109 % of control | dose: 200.0 mg/kg/injection, schedule: Q04DX002 (ip), vehicle: Klucel (hydroxypropylcellulose) (HPC) 115 % of control | dose: 400.0 mg/kg/injection, schedule: Q04DX002 (ip), vehicle: Klucel (hydroxypropylcellulose) (HPC) 112 % of control

O=c1c2ccccc2c2ccccc2n1C(c1ccccc1)c1ccccc1
inactive: [1] 98 % of control | [2] 88 % of control | [3] 88 % of control

C#CCSC(C)C
inactive: dose: 25.0 mg/kg/injection, schedule: Q04DX002 (ip), vehicle: saline 104 % of control | dose: 50.0 mg/kg/injection, schedule: Q04DX002 (ip), vehicle: saline 104 % of control | [4] 96 % of control | [5] 104 % of control and 107 % of control | [6] 93 % of control

Nc1cc(N)c([N+](=O)[O-])cc1[N+](=O)[O-]
inactive: [7] 98 % of control | [8] 93 % of control | [9] 98 % of control

COC(=O)C1CNc2ccccc2C1=O (configuration not stated)
inactive: dose: 50.0 mg/kg/injection, schedule: Q01DX001 (ip), vehicle: carboxymethylcellulose (CMC) 97 % of control | [10] 92 % of control | [11] 97 % of control | [12] 92 % of control

COC(CC(=O)N1Cc2cc3ccccc3nc2/C1=C/c1ccco1)OC
inactive: [13] 104 % of control | [14] 96 % of control | [15] 98 % of control

O=C(O)CC1CCN(C(=O)c2ccccc2)C(Cc2c[nH]c3ccccc23)C1O (configuration not stated)
inactive: [16] 97 % of control | [17] 101 % of control | [18] 92 % of control

O=C(Nc1ccc([N+](=O)[O-])cc1Cl)OCCCl
inactive: [19] 94 % of control | [7] 98 % of control | [20] 97 % of control | [13] 96 % of control | [21] 98 % of control | [8] 87 % of control and 89 % of control | [22] 97 % of control | [14] 86 % of control | [23] 87 % of control | [9] 91 % of control | [24] 94 % of control

CCCCN(CCCC)S(=O)(=O)CCl
inactive: [20] 116 % of control | [22] 108 % of control | [24] 105 % of control

NC1=NC(=O)CS1
inactive: [19] 92 % of control | [7] 105 % of control | [25] 86 % of control | [21] 103 % of control | [8] 107 % of control | [26] 93 % of control | [23] 95 % of control | [9] 105 % of control | [27] 86 % of control

O=CC(O)C(O)C(O)C(O)COC(=S)OCC(O)C(O)C(O)C(O)C=O (configuration not stated) (tested in a mixture with another compound)
inactive: [4] 110 % of control | [5] 100 % of control | [6] 95 % of control

NC(=O)c1cc(C(N)=O)c(N)nc1N
inactive: [1] 100 % of control | [2] 97 % of control | [3] 94 % of control

CNc1ncnc2c1cnn2C
inactive: dose: 5.0 mg/kg/injection, schedule: Q01DX015 (ip), vehicle: carboxymethylcellulose (CMC) 88 % of control | dose: 10.0 mg/kg/injection, schedule: Q01DX015 (ip), vehicle: carboxymethylcellulose (CMC) 97 % of control | dose: 20.0 mg/kg/injection, schedule: Q01DX015 (ip), vehicle: carboxymethylcellulose (CMC) 100 % of control | dose: 40.0 mg/kg/injection, schedule: Q01DX015 (ip), vehicle: carboxymethylcellulose (CMC) 93 % of control | dose: 80.0 mg/kg/injection, schedule: Q01DX015 (ip), vehicle: carboxymethylcellulose (CMC) 105 % of control | [10] 101 % of control | [11] 103 % of control | [12] 106 % of control

CCNc1ncnc2c1cnn2C
inactive: [16] 95 % of control | [17] 103 % of control | [18] 114 % of control

Cc1ccc([N+](=O)[O-])cc1NC(=O)Sc1ccc(C(C)(C)C)cc1
inactive: [1] 98 % of control | [2] 98 % of control | [3] 98 % of control

C[N+](C)(C)CC(O)CC#N (configuration not stated)
inactive: dose: 12.5 mg/kg/injection, schedule: Q01DX009 (ip), vehicle: Klucel (hydroxypropylcellulose) (HPC) 98 % of control | [28] 96 % of control | [29] 93 % of control

O=[N+]([O-])c1cccc(C=Nc2ccc(Cl)cc2Cl)c1
inactive: [30] 92 % of control | [1] 102 % of control | [31] 91 % of control | [2] 98 % of control | [32] 91 % of control | [3] 89 % of control

CC1CC(NC(=S)S)CC(C)(C)C1 (configuration not stated)
inactive: [28] 93 % of control | [29] 95 % of control | [33] 97 % of control | [1] 93 % of control | [2] 96 % of control

Nc1ccc(Nc2ccncc2)cc1
inactive: [29] 98 % of control | [33] 97 % of control | [1] 93 % of control | dose: 200.0 mg/kg/injection, schedule: Q01DX009 (ip), vehicle: Klucel (hydroxypropylcellulose) (HPC) 98 % of control | [2] 95 % of control

CC1CCC2(CC1)CCN(CCCN(C)C)CC2
inactive: dose: 15.0 mg/kg/injection, schedule: Q01DX015 (ip), vehicle: saline 102 % of control | dose: 30.0 mg/kg/injection, schedule: Q01DX015 (ip), vehicle: saline 102 % of control | dose: 60.0 mg/kg/injection, schedule: Q01DX015 (ip), vehicle: saline 100 % of control | dose: 120.0 mg/kg/injection, schedule: Q01DX015 (ip), vehicle: saline 104 % of control | dose: 200.0 mg/kg/injection, schedule: Q01DX015 (ip), vehicle: saline 107 % of control

O=C(Nc1ccccc1)OCCc1ccc([N+](=O)[O-])cc1
inactive: [1] 100 % of control | [2] 98 % of control | [3] 102 % of control

O=C1c2ccccc2C(=O)c2cc(/C=N/Nc3ccc([N+](=O)[O-])cc3[N+](=O)[O-])ccc21
inactive: [30] 93 % of control | [31] 90 % of control | [32] 86 % of control

O=C1NC(c2ccc3ccccc3c2)Nc2ccccc21 (configuration not stated)
inactive: [1] 103 % of control | [2] 107 % of control | [3] 105 % of control

Nc1ccc(S(=O)[O-])cc1.Nc1ccc(S(=O)[O-])cc1.[Zn+2]
inactive: dose: 75.0 mg/kg/injection, schedule: Q01DX001 (ip), vehicle: saline 95 % of control | dose: 150.0 mg/kg/injection, schedule: Q01DX001 (ip), vehicle: saline 96 % of control | dose: 300.0 mg/kg/injection, schedule: Q01DX001 (ip), vehicle: saline 102 % of control

CCOc1nc(S(=O)(=O)CC)ncc1C
inactive: [7] 109 % of control | [13] 105 % of control | [8] 104 % of control | [14] 100 % of control | [9] 87 % of control | [15] 103 % of control

CCCC(O)C[N+](=O)[O-] (configuration not stated)
inactive: [25] 103 % of control | [26] 97 % of control | [27] 101 % of control
